We go through one compound from ChEMBL document CHEMBL1151612, “Potential anticancer agents XXXII. Hydroquinone from Ipomopsis aggregata” (1984).

The test system of one test is KB. The test can be described thus: Cytotoxicity against human KB cells. Particulars: read-out: ED50.
Another test has as its system P388. The test can be described thus: Cytotoxicity against mouse P388 cells. Particulars: P388, read-out: ED50.

In brackets after ≈: the same amount, converted by molar mass.

With `Oc1ccc(O)cc1` [HYDROQUINONE], the EC50 came to 3.8 µg/mL (≈ 34.5 µM) with KB and 2.2 µg/mL (≈ 20 µM) with P388.
